Experimental data taken from patent US20150087722A1, “TREATMENT FOR BREAST TUMOR CELL METASTASIS” (China Medical University, priority 2012, published 2015).

How the values were obtained:
[1] = test system: breast tumor cells MDA-MB-231; experiment: colony formation assay; type: cell-based, human; settings: MDA-MB-231, 24 h treatment, FIG. 1B
Source text: In order to know the effect of the compound II on the colony formation of the breast tumor cells MDA-MB-231, the cells were observed through a colony formation assay.

[2] = test system: breast tumor cells MDA-MB-231; experiment: wound scratching assay (cell migration); type: cell-based, human
Experimental: Referring to FIG. 14, the wound scratching assay was performed to analysis effect of the compound II in different doses on tumor cell metastasis. In the wound scratching assay for observing cell migration, the cells MDA-MB-231 (3×10^5) were planted in a 12-well plate, and the next day the cells were washed with PBS twice. The original culture medium then was replaced by 1% FBS cell culture medium. The next day a space was scratched at the bottom of the well. The cell culture medium was removed and the cells were washed with PBS twice. 1% FBS cell culture medium and the compound II of different concentrations were added and photographs were taken after 0, 12, 24 and 36 h so as to observe migration of cells. After the reaction, the cells were fixed for 30 min using 75% ice alcohol. After the alcohol was completely volatilized, the cells were stained with Giemsa Stain. The migration number of cells was counted in three random fields (200×) under the microscope (Lin et al., 2008). […] After the breast tumor cells were treated for 0, 12, 24 and 36 h, the quantitative result of effect of the compound II on metastasis of breast tumor cells MDA-MD-231 was observed, and the data results were represented by mean±SD values, where n=3.

[3] = test system: tumor inoculated nude mice; experiment: histopathological examination (H&E staining) of tumor inoculated nude mice; type: in vivo; settings: 0.75 mg/Kg everyday, magnification 400×
Experimental: In the histopathological examination of tumor inoculated nude mice, the inoculated nude mice were examined through a histopathological H&E staining method. The tumor and internal organs were embedded in paraffin and sliced into slides having a thickness of […] by a slicer. Then after deparaffinizing, rehydrating and renaturating, the slide was washed with water twice and stained with Hematoxylin solution for 30-50 s. Then the slide was treated with 0.1% acetic acid-water and washed with water twice. At last the slide was stained with Eosin for 100 s and mounted with Histoclad.

[4] = test system: Normal Keratinocyte Cell (HaCaT cell strain); experiment: MTT cell viability assay; type: cell-based; settings: Homo sapiens
[5] = test system: Her-2/neu, p-Tyrosine, PI3K and Akt in breast tumor cells MDA-MB-453; experiment: western blotting of Her-2/neu-related proteins; type: cell-based, human
Experimental: The steps of western blotting include: washing cells with PBS twice at 4° C.; adding a lysis buffer and rubbing the cells by a rubbr policeman so as to lyse cells; putting the lysed cell solution into a 1.5 ml microcentrifuge tube and shaking for 1 min; centrifuging at 12000 rpm for 10 min and taking the supernatant; measuring concentration of the protein through a Bio-Rad protein assay kit; and storing the remained extracted protein solution at −70° C.; taking 100 μg protein solution and adding a SDS/protein loading buffer having the same volume, where the SDS/protein loading buffer has a concentration two times larger than the protein solution; boiling the mixture of the protein solution and the SDS/protein loading buffer at 100° C. for 10 min; cooling and loading the protein samples in each hole of gel; adjusting the voltage to 100 V and running the protein samples on the gel until the tracking dye in the sample buffer reaches the bottom of the gel; and subsequently transferring the protein from the gel using electrophoresis. A PVDF membrane was soaked in methanol until the paper was totally wet. The paper was arranged in a transfer tank placed in a 4° C. ice box, and the protein transfer was performed at a current of […] for 4 h. The PVDF membrane was then taken out, placed in a PBS blocking solution including 1% BSA and shaken for 2 h. Then the PVDF membrane was placed in a blocking solution including a primary antibody and slowly shaken at 100 rpm for 1 h at the room temperature. […] Then luminescence image equipment was used, where the PVDF was placed onto a black metal plate by a plastic pincer and the face including protein was upwards, a 1:1 mixed Chemiluminesent Substrate was added into the membrane and the exposure time depends on the fluorescence intensity of antibodies. […] FIG. 22 illustrates expression results of Her-2/neu-related proteins used for facilitating survival of tumor cells when compounds of formula (I) in different doses were added, which were detected by the western blotting. […]

[6] = test system: MMP-9 and MMP2 in human normal breast cells MCF-10A stimulated by TNF-α/TGF-β; experiment: Zymography enzyme activity assay; type: cell-based
Source text: Referring to FIG. 8B, the Zymography enzyme activity assay was used to detect effect of the compound II in different doses on enzyme activities of the MMP-9, MMP2 and uPA in the breast tumor cells MDA-MB-231. Moreover, referring to FIG. 9, the Zymography enzyme activity assay was used to detect effect of the compound I on enzyme activities of the MMP-9 and MMP2 in the human normal breast cells MCF-10A stimulated by TNF-α/TGF-β. In the Zymography enzyme activity assay, the cells (1×10^6) were planted in a 6-well plate. The next day after the cells were adhered to the wall, the cells were cultured in a serum free DMEM culture medium at an atmosphere of 5% CO2 in an incubator at 37° C. for 24 h. The compound II in different doses were added into the DMEM culture medium. In other test groups, the compound I was added, TNF-α/TGF-β were added or the compound I and TNF-α/TGF-β were added into the DMEM culture medium, wherein the concentration of compound I and TNF-α/TGF-β were 2 mM and 10 ng/ml, respectively. The cells were cultured in the culture medium for 2 h and then washed with PBS. The cell culture medium was putted into a microcentrifuge tube and centrifuged for 10 min at 1500 rpm. The supernatant was taken to perform a protein gel electrophoresis (SDS-PAGE), so as to separate the proteins. […]

Row | SMILES | colony formation of breast tumor cells [1] | breast tumor cells migrated ([2]; 0.5 μM, in 12-24 h) | migration capability of breast tumor cells ([2]; concentration above 1 μM) | mitosis state of tumor cells [3] | IC50 [4] [µM] | expression of Her-2/neu and p-Tyrosine ([5]; 40 μM) | expression amount of p-Tyrosine activated by Her-2/neu ([5]; 10-60 μM, with increasing concentration) | protein expression of PI3K and Akt ([5]; high concentration) | enzyme activities of MMP-2 and MMP-9 ([6]; compound alone) | enzyme activities of MMP-2 and MMP-9 ([6]; with TNF-α/TGF-β simultaneously)
1 | COC1=C(OC)C(=O)C(C)=C(C)C1=O [compound II] | significantly inhibit colony formation | 60-70% | significantly inhibited | low mitosis state | 35.2 | totally inhibited | significantly decreased | inhibited |  | 
2 | COC1=C(OC)C(=O)C(C)=CC1=O [compound I] |  |  |  |  |  |  |  |  | decreased | recovered the increase caused by TNF-α/TGF-β stimulating
